The text below walks through data of patent US20230295119A1, “SUBSTITUTED PYRIDINES FOR THE TREATMENT OF INFLAMMATORY DISEASES” (GOSSAMER BIO SERVICES, INC., priority 2020, published 2023).

Each structure is given as a SMILES string.

In one test the target is TYK2 JH2 domain (Homo sapiens (Human), UniProt P29597). Nature of the test: TYK2 JH2 NanoBRET assay. The conditions noted are these: Table 20, read-out: TYK2 IC50. Type of test: binding. Summed up: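 HEK293T cells transiently expressing NanoLuc-TYK2 JH2 fusion, incubated 2 h with compound and NanoBRET K10 tracer (0.5 µM final). Target engagement read as acceptor/donor BRET ratio after Nano-Glo substrate plus extracellular NanoLuc inhibitor.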

The next test deals with human JAK1 (Homo sapiens (Human), UniProt P23458). In words: JAK1 TR-FRET kinase assay. Type of test: biochemical. The note with it: TR-FRET, JAK1 2.5 nM.
The target of a further test is human JAK2 (Homo sapiens (Human), UniProt O60674). In words: JAK2 TR-FRET kinase assay. The test is classed as biochemical. The conditions noted are these: JAK2 0.025 nM.
Another test concerns the target human JAK3 (Homo sapiens (Human), UniProt P52333). In words: JAK3 TR-FRET kinase assay. The test is classed as biochemical. The conditions noted are these: JAK3 0.0125 nM.

Chain of human JAK1 (P23458 whole entry): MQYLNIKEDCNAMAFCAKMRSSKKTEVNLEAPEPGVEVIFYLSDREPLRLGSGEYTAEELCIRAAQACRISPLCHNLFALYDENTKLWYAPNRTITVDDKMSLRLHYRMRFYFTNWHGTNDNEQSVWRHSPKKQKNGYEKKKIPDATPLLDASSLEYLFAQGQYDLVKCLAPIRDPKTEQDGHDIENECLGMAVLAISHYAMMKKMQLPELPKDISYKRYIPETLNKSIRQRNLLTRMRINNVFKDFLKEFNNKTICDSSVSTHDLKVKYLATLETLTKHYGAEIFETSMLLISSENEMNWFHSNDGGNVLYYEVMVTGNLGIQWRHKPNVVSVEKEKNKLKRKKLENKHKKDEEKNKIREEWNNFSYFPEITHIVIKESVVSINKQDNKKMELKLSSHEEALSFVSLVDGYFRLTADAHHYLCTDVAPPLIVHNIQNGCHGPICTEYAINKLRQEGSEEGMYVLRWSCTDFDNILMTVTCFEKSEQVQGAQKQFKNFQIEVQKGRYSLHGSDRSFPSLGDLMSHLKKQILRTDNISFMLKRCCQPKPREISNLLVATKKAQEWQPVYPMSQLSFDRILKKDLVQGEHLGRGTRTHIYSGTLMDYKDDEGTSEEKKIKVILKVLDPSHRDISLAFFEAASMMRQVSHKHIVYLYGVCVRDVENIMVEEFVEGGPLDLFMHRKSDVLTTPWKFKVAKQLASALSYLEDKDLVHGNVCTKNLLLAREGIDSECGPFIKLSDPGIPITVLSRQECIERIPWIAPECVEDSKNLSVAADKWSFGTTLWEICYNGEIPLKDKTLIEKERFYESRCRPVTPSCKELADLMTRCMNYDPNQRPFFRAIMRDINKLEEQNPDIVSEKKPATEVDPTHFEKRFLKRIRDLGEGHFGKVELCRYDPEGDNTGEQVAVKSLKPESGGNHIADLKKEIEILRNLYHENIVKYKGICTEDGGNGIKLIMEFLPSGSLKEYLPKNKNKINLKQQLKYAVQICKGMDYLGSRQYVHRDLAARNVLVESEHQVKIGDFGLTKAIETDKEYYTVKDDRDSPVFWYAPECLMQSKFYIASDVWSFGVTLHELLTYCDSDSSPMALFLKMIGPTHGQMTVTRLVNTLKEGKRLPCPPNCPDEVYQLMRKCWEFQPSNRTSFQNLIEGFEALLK
Chain of TYK2 JH2 domain (P29597 589-875): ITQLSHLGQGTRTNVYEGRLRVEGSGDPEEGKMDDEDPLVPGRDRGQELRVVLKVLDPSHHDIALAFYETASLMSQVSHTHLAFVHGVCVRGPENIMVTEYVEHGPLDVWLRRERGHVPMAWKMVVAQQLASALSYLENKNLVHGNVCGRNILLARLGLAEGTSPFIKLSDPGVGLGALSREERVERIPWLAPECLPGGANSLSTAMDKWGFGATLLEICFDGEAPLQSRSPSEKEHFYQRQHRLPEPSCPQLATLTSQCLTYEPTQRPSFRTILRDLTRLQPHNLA
Chain of human JAK3 (P52333 whole entry): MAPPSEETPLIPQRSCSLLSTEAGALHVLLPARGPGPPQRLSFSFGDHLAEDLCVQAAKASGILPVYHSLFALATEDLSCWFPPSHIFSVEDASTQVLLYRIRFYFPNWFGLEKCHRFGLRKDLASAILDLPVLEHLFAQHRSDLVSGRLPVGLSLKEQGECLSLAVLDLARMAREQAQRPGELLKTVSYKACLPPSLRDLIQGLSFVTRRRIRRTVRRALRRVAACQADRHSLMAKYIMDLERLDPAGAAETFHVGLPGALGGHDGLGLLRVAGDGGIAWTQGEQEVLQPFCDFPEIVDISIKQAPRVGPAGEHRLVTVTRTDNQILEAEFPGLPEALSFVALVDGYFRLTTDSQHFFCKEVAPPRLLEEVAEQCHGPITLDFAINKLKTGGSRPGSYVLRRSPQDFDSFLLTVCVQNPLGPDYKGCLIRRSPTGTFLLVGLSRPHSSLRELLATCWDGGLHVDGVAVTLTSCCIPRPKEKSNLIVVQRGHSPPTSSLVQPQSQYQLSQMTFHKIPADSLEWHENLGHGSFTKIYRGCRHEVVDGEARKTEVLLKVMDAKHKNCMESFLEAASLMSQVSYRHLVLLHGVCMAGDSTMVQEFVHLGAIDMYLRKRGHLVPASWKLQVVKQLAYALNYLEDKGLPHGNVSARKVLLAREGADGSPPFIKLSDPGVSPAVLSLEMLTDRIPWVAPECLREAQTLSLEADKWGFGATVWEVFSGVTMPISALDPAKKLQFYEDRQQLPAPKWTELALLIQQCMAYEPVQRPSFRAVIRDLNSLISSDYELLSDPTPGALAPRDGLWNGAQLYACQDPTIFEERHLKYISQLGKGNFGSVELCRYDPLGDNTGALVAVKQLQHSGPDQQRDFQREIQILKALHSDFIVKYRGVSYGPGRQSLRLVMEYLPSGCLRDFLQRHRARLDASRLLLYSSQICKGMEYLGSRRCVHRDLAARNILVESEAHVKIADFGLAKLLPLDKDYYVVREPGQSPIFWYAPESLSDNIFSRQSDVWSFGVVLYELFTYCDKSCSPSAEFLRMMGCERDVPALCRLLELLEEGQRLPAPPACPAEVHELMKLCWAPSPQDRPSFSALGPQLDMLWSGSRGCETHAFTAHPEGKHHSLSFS
Chain of human JAK2 (O60674 whole entry): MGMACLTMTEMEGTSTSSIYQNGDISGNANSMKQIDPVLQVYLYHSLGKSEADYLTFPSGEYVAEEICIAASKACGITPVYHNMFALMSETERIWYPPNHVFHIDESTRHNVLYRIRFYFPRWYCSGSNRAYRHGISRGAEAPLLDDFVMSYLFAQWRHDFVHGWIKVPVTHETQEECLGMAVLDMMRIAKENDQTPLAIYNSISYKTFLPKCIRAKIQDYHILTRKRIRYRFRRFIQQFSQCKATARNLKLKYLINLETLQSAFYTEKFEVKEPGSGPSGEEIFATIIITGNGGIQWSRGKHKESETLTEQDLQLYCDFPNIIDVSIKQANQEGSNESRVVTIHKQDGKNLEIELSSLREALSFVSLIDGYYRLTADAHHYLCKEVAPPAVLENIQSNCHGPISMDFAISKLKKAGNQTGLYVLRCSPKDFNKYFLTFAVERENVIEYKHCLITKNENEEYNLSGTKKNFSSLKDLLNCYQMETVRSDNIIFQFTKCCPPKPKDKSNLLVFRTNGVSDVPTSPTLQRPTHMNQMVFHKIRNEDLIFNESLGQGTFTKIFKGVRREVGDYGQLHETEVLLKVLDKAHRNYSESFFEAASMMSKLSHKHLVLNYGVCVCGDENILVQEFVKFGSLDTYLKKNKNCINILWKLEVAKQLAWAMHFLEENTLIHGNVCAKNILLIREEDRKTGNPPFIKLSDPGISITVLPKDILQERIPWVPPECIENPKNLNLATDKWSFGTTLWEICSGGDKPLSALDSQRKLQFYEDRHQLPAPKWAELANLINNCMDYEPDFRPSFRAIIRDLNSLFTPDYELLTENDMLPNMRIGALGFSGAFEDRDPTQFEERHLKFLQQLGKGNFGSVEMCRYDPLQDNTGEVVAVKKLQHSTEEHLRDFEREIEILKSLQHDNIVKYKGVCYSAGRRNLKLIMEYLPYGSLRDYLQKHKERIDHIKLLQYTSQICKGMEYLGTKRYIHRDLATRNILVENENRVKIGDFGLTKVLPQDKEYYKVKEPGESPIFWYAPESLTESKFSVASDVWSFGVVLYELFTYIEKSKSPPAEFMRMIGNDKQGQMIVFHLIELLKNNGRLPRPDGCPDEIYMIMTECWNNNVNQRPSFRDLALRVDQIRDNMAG

For `CCC(=O)c1cnc(Nc2ccc(OCCCO)nn2)cc1Nc1cccc(-c2ncn(C)n2)c1OC` [Compound 18N], the half-inhibitory concentration (IC50) at TYK2 JH2 domain was less than 0.005 µM; against human JAK1, no less than 0.5 µM; against human JAK2, no less than 0.5 µM; on human JAK3, no less than 0.5 µM.

On to `CCC(=O)c1cnc(Nc2cnc(O[C@@H]3CCCN(C)C3)cn2)cc1Nc1cccc(-c2ncn(C)n2)c1OC` [Compound 18PPP], for which the 50% inhibitory concentration (IC50) at TYK2 JH2 domain was 0.005 to 0.05 µM; on human JAK1, no less than 0.5 µM; against human JAK2, no less than 0.5 µM; at human JAK3, no less than 0.5 µM.

Regarding `CCC(=O)c1cnc(Nc2cnc(OCCN3CC(F)C3)cn2)cc1Nc1cccc(-c2ncn(C)n2)c1OC` [Compound 18PP], the IC50 was 0.005 to 0.05 µM at TYK2 JH2 domain, no less than 0.5 µM at human JAK1, no less than 0.5 µM on human JAK2 and no less than 0.5 µM at human JAK3.

Consider `CCC(=O)c1cnc(Nc2cnc(OCCO)cn2)cc1Nc1cccc(-c2ncn(C)n2)c1OC` [Compound 18P], for which the IC50 at TYK2 JH2 domain was 0.005 to 0.05 µM; at human JAK1 it was no less than 0.5 µM; against human JAK2 it was no less than 0.5 µM; on human JAK3, no less than 0.5 µM.

`CCC(=O)c1cnc(Nc2cnc(O[C@H]3CCCN(C)C3)cn2)cc1Nc1cccc(-c2ncn(C)n2)c1OC` [Compound 18QQQ]: the IC50 was 0.005 to 0.05 µM on TYK2 JH2 domain, no less than 0.5 µM at human JAK1, no less than 0.5 µM at human JAK2 and no less than 0.5 µM against human JAK3.

With `CCC(=O)c1cnc(Nc2cnc(OCCN3CC(F)(F)C3)cn2)cc1Nc1cccc(-c2ncn(C)n2)c1OC` [Compound 18QQ], the half-inhibitory concentration (IC50) on TYK2 JH2 domain was 0.005 to 0.05 µM; on human JAK1, no less than 0.5 µM; on human JAK2 it was no less than 0.5 µM; against human JAK3, no less than 0.5 µM.

For `CCC(=O)c1cnc(Nc2cnc(OCCCO)cn2)cc1Nc1cccc(-c2ncn(C)n2)c1OC` [Compound 18Q], the IC50 was 0.005 to 0.05 µM on TYK2 JH2 domain, no less than 0.5 µM against human JAK1, no less than 0.5 µM against human JAK2 and no less than 0.5 µM against human JAK3.

On to `CCC(=O)c1cnc(Nc2cnc(O[C@H]3CN(C)CC3(F)F)cn2)cc1Nc1cccc(-c2ncn(C)n2)c1OC` [Compound 18RRR], for which the IC50 was 0.005 to 0.05 µM at TYK2 JH2 domain, no less than 0.5 µM at human JAK1, no less than 0.5 µM against human JAK2 and no less than 0.5 µM against human JAK3.

`CCC(=O)c1cnc(Nc2cnc(OCCN3CC(C#N)C3)cn2)cc1Nc1cccc(-c2ncn(C)n2)c1OC` [Compound 18RR]: the IC50 at TYK2 JH2 domain is 0.005 to 0.05 µM; at human JAK1, no less than 0.5 µM; at human JAK2 it was no less than 0.5 µM; at human JAK3, no less than 0.5 µM.

As for `CCC(=O)c1cnc(Nc2ccc(O[C@H]3COC[C@@H]3O)cn2)cc1Nc1cccc(-c2ncn(C)n2)c1OC` [Compound 18R], the 50% inhibitory concentration (IC50) at TYK2 JH2 domain is less than 0.005 µM; against human JAK1, no less than 0.5 µM; on human JAK2, no less than 0.5 µM; against human JAK3, 0.05 to 0.5 µM.

As to `CCC(=O)c1cnc(Nc2cnc(O[C@@H]3CCN(C)C[C@@H]3F)cn2)cc1Nc1cccc(-c2ncn(C)n2)c1OC` [Compound 18SSS], the IC50 on TYK2 JH2 domain was 0.005 to 0.05 µM; at human JAK1, no less than 0.5 µM; against human JAK2 it was no less than 0.5 µM; at human JAK3, no less than 0.5 µM.

Consider `CCC(=O)c1cnc(Nc2cnc(O[C@@H]3CCNC3)cn2)cc1Nc1cccc(-c2ncn(C)n2)c1OC` [Compound 18SS], for which the IC50 at TYK2 JH2 domain was 0.005 to 0.05 µM; against human JAK1, no less than 0.5 µM; on human JAK2 it was no less than 0.5 µM; against human JAK3, no less than 0.5 µM.

In the case of `CCC(=O)c1cnc(Nc2ccc(O[C@H]3CN(C)C[C@@H]3O)cn2)cc1Nc1cccc(-c2ncn(C)n2)c1OC` [Compound 18S], the half-inhibitory concentration (IC50) at TYK2 JH2 domain is 0.005 to 0.05 µM; at human JAK1, no less than 0.5 µM; on human JAK2, no less than 0.5 µM; at human JAK3, 0.05 to 0.5 µM.

In the case of `CCC(=O)c1cnc(Nc2cnc(O[C@H]3CCN(C)C[C@@H]3F)cn2)cc1Nc1cccc(-c2ncn(C)n2)c1OC` [Compound 18TTT], the IC50 at TYK2 JH2 domain was 0.005 to 0.05 µM; against human JAK1, no less than 0.5 µM; against human JAK2 it was no less than 0.5 µM; on human JAK3 it was no less than 0.5 µM.

Regarding `CCC(=O)c1cnc(Nc2cnc(O[C@H]3CCN(C)C3)cn2)cc1Nc1cccc(-c2ncn(C)n2)c1OC` [Compound 18TT], the IC50 was less than 0.005 µM on TYK2 JH2 domain, no less than 0.5 µM on human JAK1, no less than 0.5 µM against human JAK2 and no less than 0.5 µM at human JAK3.

Regarding `COc1c(Nc2cc(Nc3ccc(OCCN(C)C)cn3)ncc2C(=O)C2CC2)cccc1-c1ncn(C)n1` [Compound 18T], the IC50 on TYK2 JH2 domain was 0.005 to 0.05 µM; on human JAK1, no less than 0.5 µM; on human JAK2 it was no less than 0.5 µM; on human JAK3, no less than 0.5 µM.

`CCC(=O)c1cnc(Nc2ccc(O[C@H]3CN(C)C[C@@H]3F)cn2)cc1Nc1cccc(-c2ncn(C)n2)c1OC` [Compound 18UUU]: the IC50 at TYK2 JH2 domain is less than 0.005 µM; at human JAK1, no less than 0.5 µM; against human JAK2 it was no less than 0.5 µM; at human JAK3 it was no less than 0.5 µM.

In the case of `CCC(=O)c1cnc(Nc2cnc(O[C@@H]3CCN(C)C3)cn2)cc1Nc1cccc(-c2ncn(C)n2)c1OC` [Compound 18UU], the IC50 was 0.005 to 0.05 µM on TYK2 JH2 domain, no less than 0.5 µM against human JAK1, no less than 0.5 µM against human JAK2 and no less than 0.5 µM against human JAK3.

With `CCC(=O)c1cnc(Nc2ccc(OC3CN(C)C3)cn2)cc1Nc1cccc(-c2ncn(C)n2)c1OC` [Compound 18U], the concentration for half-maximal inhibition (IC50) on TYK2 JH2 domain was less than 0.005 µM; against human JAK1, no less than 0.5 µM; at human JAK2, no less than 0.5 µM; against human JAK3, no less than 0.5 µM.

Turning to `CCC(=O)c1cnc(Nc2ccc(O[C@@H]3CCN(C)C3)cn2)cc1Nc1cccc(-c2ncc(F)cn2)c1OC` [Compound 18VVV], the 50% inhibitory concentration (IC50) at TYK2 JH2 domain is 0.005 to 0.05 µM; against human JAK1 it was no less than 0.5 µM; on human JAK2, no less than 0.5 µM; at human JAK3, 0.05 to 0.5 µM.

For `CCC(=O)c1cnc(Nc2cnc(OCCN3CCCC3)cn2)cc1Nc1cccc(-c2ncn(C)n2)c1OC` [Compound 18VV], the 50% inhibitory concentration (IC50) at TYK2 JH2 domain is less than 0.005 µM; on human JAK1 it was no less than 0.5 µM; against human JAK2 it was no less than 0.5 µM; against human JAK3, no less than 0.5 µM.

For the compound `CCC(=O)c1cnc(Nc2ccc(O[C@@H]3CCN(C)C3)cn2)cc1Nc1cccc(-c2ncn(C)n2)c1OC` [Compound 18V], the IC50 at TYK2 JH2 domain is less than 0.005 µM; against human JAK1 it was no less than 0.5 µM; on human JAK2, no less than 0.5 µM; against human JAK3, 0.05 to 0.5 µM.

As to `CCC(=O)c1cnc(Nc2ccc(O[C@@H]3CCN(C)C3)cn2)cc1Nc1cc(F)cc(-c2ncn(C)n2)c1OC` [Compound 18WWW], the IC50 is less than 0.005 µM at TYK2 JH2 domain, no less than 0.5 µM against human JAK1, no less than 0.5 µM at human JAK2 and no less than 0.5 µM on human JAK3.

As for `CCC(=O)c1cnc(Nc2cnc(OCCCN3CCCC3)cn2)cc1Nc1cccc(-c2ncn(C)n2)c1OC` [Compound 18WW], the IC50 is less than 0.005 µM on TYK2 JH2 domain, no less than 0.5 µM against human JAK1, no less than 0.5 µM against human JAK2 and no less than 0.5 µM against human JAK3.

Take `CCC(=O)c1cnc(Nc2ccc(O[C@H]3CCN(C)C3)cn2)cc1Nc1cccc(-c2ncn(C)n2)c1OC` [Compound 18W]: the IC50 on TYK2 JH2 domain was less than 0.005 µM; against human JAK1, no less than 0.5 µM; against human JAK2, no less than 0.5 µM; against human JAK3 it was no less than 0.5 µM.

Consider `CCC(=O)c1cnc(Nc2ncc(O[C@@H]3CCN(C)C3)cc2F)cc1Nc1cccc(-c2ncn(C)n2)c1OC` [Compound 18XXX], for which the 50% inhibitory concentration (IC50) at TYK2 JH2 domain was 0.005 to 0.05 µM; at human JAK1, no less than 0.5 µM; at human JAK2, no less than 0.5 µM; at human JAK3 it was no less than 0.5 µM.

Consider `CCC(=O)c1cnc(Nc2cnc(OCCN3CC[C@H](F)C3)cn2)cc1Nc1cccc(-c2ncn(C)n2)c1OC` [Compound 18XX], for which the IC50 at TYK2 JH2 domain was 0.005 to 0.05 µM; against human JAK1, no less than 0.5 µM; on human JAK2 it was no less than 0.5 µM; at human JAK3, no less than 0.5 µM.

As for `[2H]C([2H])([2H])N1CC[C@@H](Oc2ccc(Nc3cc(Nc4cccc(-c5ncn(C)n5)c4OC)c(C(=O)CC)cn3)nc2)C1` [Compound 18X], the half-inhibitory concentration (IC50) on TYK2 JH2 domain was less than 0.005 µM; against human JAK1 it was no less than 0.5 µM; against human JAK2, no less than 0.5 µM; against human JAK3, 0.05 to 0.5 µM.

Take `CCC(=O)c1cnc(Nc2ccc(O[C@@H]3CCN(C)C3)c(C)n2)cc1Nc1cccc(-c2ncn(C)n2)c1OC` [Compound 18YYY]: the 50% inhibitory concentration (IC50) at TYK2 JH2 domain is less than 0.005 µM; against human JAK1 it was no less than 0.5 µM; at human JAK2 it was no less than 0.5 µM; against human JAK3, 0.05 to 0.5 µM.

Take `CCC(=O)c1cnc(Nc2cnc(OCCN3CC[C@@H](F)C3)cn2)cc1Nc1cccc(-c2ncn(C)n2)c1OC` [Compound 18YY]: the concentration for half-maximal inhibition (IC50) is 0.005 to 0.05 µM on TYK2 JH2 domain, no less than 0.5 µM on human JAK1, no less than 0.5 µM against human JAK2 and no less than 0.5 µM on human JAK3.

For the compound `CCC(=O)c1cnc(Nc2ccc(OC3CCN(C)CC3)cn2)cc1Nc1cccc(-c2ncn(C)n2)c1OC` [Compound 18Y], the half-maximal inhibitory concentration (IC50) is less than 0.005 µM at TYK2 JH2 domain, no less than 0.5 µM against human JAK1, 0.05 to 0.5 µM at human JAK2 and 0.05 to 0.5 µM against human JAK3.

As for `CCC(=O)c1cnc(Nc2ccc(OC3COC3)c(C)n2)cc1Nc1cccc(-c2ncn(C)n2)c1OC` [Compound 18ZZZ], the 50% inhibitory concentration (IC50) was less than 0.005 µM on TYK2 JH2 domain, no less than 0.5 µM against human JAK1, 0.05 to 0.5 µM at human JAK2 and 0.05 to 0.5 µM at human JAK3.

`CCC(=O)c1cnc(Nc2cnc(OCCN3CCC(F)(F)C3)cn2)cc1Nc1cccc(-c2ncn(C)n2)c1OC` [Compound 18ZZ]: the IC50 is 0.005 to 0.05 µM on TYK2 JH2 domain, no less than 0.5 µM on human JAK1, no less than 0.5 µM against human JAK2 and no less than 0.5 µM on human JAK3.

Take `CCC(=O)c1cnc(Nc2ccc(OC3COC3)cn2)cc1Nc1cccc(-c2ncn(C)n2)c1OC` [Compound 18Z]: the IC50 was less than 0.005 µM at TYK2 JH2 domain, no less than 0.5 µM against human JAK1, no less than 0.5 µM against human JAK2 and no less than 0.5 µM against human JAK3.

Consider `CCC(=O)c1cnc(Nc2cnc(C(F)(F)CNC)cn2)cc1Nc1cccc(-c2ncn(C)n2)c1OC` [Compound 19B], for which the IC50 was 0.05 to 0.5 µM at TYK2 JH2 domain, no less than 0.5 µM at human JAK1, no less than 0.5 µM at human JAK2 and no less than 0.5 µM on human JAK3.
